Assays:
[1] = tested on: binding between mTORC2 and ribosomes; experiment: PLA of mTORC2-ribosome binding with Ca2+ chelators; type: cell-based; settings: HT1080 cells, 10 μM
Description: FIG. 46A is the PLA result between the indicated proteins (fine and bright spots) in HT1080 cells treated with BAPTA-AM (10 μM), BAPTA (10 μM), and EGTA-AM (10 μM). The scale bar represents 15 μm. The graph on the right quantifies the fine, bright points (n=3, independent experiment). Data were expressed as mean±SD. **p<0.01; ****p<0.0001, Tukey's post hoc test after member ANOVA.
The role of Ca^2+ in mTORC2 activation was investigated. Ca^2+ depletion by BAPTA acetoxymethyl ester (BAPTA-AM) rather than BAPTA or slow Ca^2+ chelator (ie, EGTA-AM) blocked the binding between mTORC2 and ribosomes as shown in PLA analysis results. (See FIG. 46A).

BAL inflammatory cells = experiment: Aspergillus-infected asthmatic mouse model, BAL cells and lung histology; type: in vivo; settings: asthma-inducing group; BIA 0.1 mg/kg and 0.01 mg/kg, IC87114 1 mg/kg, intratracheal
Source text: FIG. 80A and FIG. 80B show mice that were infected with aspergillus with or without BIA, or IC87114, fixing the tissue to 4% formalin, injecting paraffin to make blocks, and then cutting into 4 μm thick to react to buffer and performing hematoxylin-eosin staining. The observation result (A) and the observation result (B) by PAS staining are shown.
The result is quantified by counting the total number of cells of living BAL fluid, excluding dead cells stained in trypan blue.
A. fumigatus-induced allergic pulmonary inflammation To establish the model, mice were treated with 10 μg of A. fumigatus crude antigen extract (Greer Laboratories, Cat # XPM3D3A4, Lenoir, NC, USA) with fungal substance inactivated. 0.2 ml of incomplete Freund's adjuvant (Sigma-Aldrich, Cat # F5506-6X) in regular saline It was dissolved and mixed, and half of the preparation was deposited in the peritoneal cavity and the rest was delivered subcutaneously. After 2 weeks, mice received 20 μg of A. fumigatus antigen dissolved in normal saline through the intranasal route, after an intranasal attack After 4 days, 20 μg of A. Fumigatus antigen dissolved in normal saline was treated via the endotracheal route. Control mice were administered only saline at the same time point in time through the same route and treated with the same number of conidia. […]

BI-1 (TMBIM6) = experiment: HT1080 xenograft with SAMiRNA knockdown of BI-1; type: in vivo, nude mice; settings: 1 mg/kg, intravenously in the tail every 3 days
Description: FIGS. 13A-13D show the volume, weight, and size of tumors derived from HT1080 in TMBIM6-target SAMiRNA, control SAMiRNA or nude mice injected with saline solution (n=5 mice per group) through the tail vein. Data were expressed as mean±SD. *p<0.05, ***p<0.001, ****p<0.0001, Bonferroni's post hoc test (B) after binary ANOVA, member ANOVA followed by Tukey's post hoc test.
In culture, exponentially growing BI-1 (TMBIM6) knockout and WT HT1080 cells were treated with trypsin and quantified through trypan blue staining differentiation, and 3-5×10^6 cells were resuspended in 0.1 ml PBS. Cells were injected subcutaneously into the flanks of each mouse. 5×10^6 cells were injected into 0.1 ml PBS for SMAiRNA or BIA treatment. When the weight of the tumor reaches about 100 mg (7-10 days after inoculation), mice are randomly assigned 1 mg/kg BI-1 SAMiRNA diluted in saline, 1 mg/kg BIA diluted in DMSO (final concentration: 10% v/v) or vehicle (saline solution or DMSO, 10% v/v) was divided into groups.
SAMiRNA was administered intravenously in the tail every 3 days and BIA was injected intraperitoneally 5 days per week over 3 weeks. […].
After 25-28 days, the mice were euthanized, solid tumors were incised, and tumor volumes were recorded. Tumor size was measured with a caliper. The tumor volume (mm^3) was calculated by the formula [(shortest diameter)2×longest diameter]/2.

## CC(=O)OCOC(=O)CN(CC(=O)OCOC(C)=O)c1ccccc1OCCOc1ccccc1N(CC(=O)OCOC(C)=O)CC(=O)OCOC(C)=O [BAPTA-AM, BAPTA acetoxymethyl ester]
[1]
  binding between mTORC2 and ribosomes: blocked

## Cc1ccccc1-n1c(Cn2cnc3c(N)ncnc32)nc2cccc(C)c2c1=O [IC87114, reference compound]
BAL inflammatory cells
  all BAL inflammatory cells: inhibited

## SAMiRNA: self-assembled micelle inhibitory RNA against BI-1, sequence 5′-AAGGCACUGCAUUGAUCUUU-3′, obtained from Bioneer (siRNA; micelle-forming conjugate, chemistry not fully specified)
BI-1 (TMBIM6)
  tumor formation and Ki67 expression: reduced

— patent publication US20240139125A1 (INDUSTRIAL COOPERATION FOUNDATION JEONBUK NATIONAL …, priority 2020, published 2024)
